# According to the supplement of paper PMC10307832:
# What was measured:
# Test in all cases: relative viability (nuclei count vs DMSO), 5 days (fraction); higher = more cells survive
# Serdemetan + Linsitinib = compound: c1ccc2c(CCNc3ccc(Nc4ccncc4)cc3)c[nH]c2c1 [Serdemetan] + C[C@]1(O)C[C@@H](c2nc(-c3ccc4ccc(-c5ccccc5)nc4c3)c3c(N)nccn32)C1 [Linsitinib] (partner 1 µM)
# In short: (§1)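 Cells from lung cancer lines were seeded into 1536-well plates and, one day later, dosed by pin tool. Treatments were either a single drug or a fixed dose of an anchor drug with five library-drug doses (not always all listed) in √10 steps. After 5 days, nuclei were stained in a one-step fixation (final 0.05% Triton X-100, 1% formaldehyde, 1 ug/ml Hoechst) and counted on 4× images, and relative viability is the treated-to-vehicle nuclei ratio, as the median of duplicate plates.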
# Serdemetan + Dasatinib = compound: c1ccc2c(CCNc3ccc(Nc4ccncc4)cc3)c[nH]c2c1 [Serdemetan] + Cc1nc(Nc2ncc(C(=O)Nc3c(C)cccc3Cl)s2)cc(N2CCN(CCO)CC2)n1 [Dasatinib] (partner 0.075 µM)
# In short: as §1
# Selisistat + Vorinostat = compound: C1CC(C2=C(C1)C3=C(N2)C=CC(=C3)Cl)C(=O)N [Selisistat] + O=C(CCCCCCC(=O)Nc1ccccc1)NO [Vorinostat] (partner 1 µM)
# In short: as §1
# Selisistat + Alpelisib = compound: C1CC(C2=C(C1)C3=C(N2)C=CC(=C3)Cl)C(=O)N [Selisistat] + Cc1nc(NC(=O)N2CCC[C@H]2C(N)=O)sc1-c1ccnc(C(C)(C)C(F)(F)F)c1 [Alpelisib] (partner 2 µM)
# In short: as §1
cell line,measurement,setting,value
UMC-11,relative viability,Serdemetan + Linsitinib; first compound 0.04 µM,1.03
same,relative viability,Serdemetan + Linsitinib; first compound 0.1265 µM,0.902
same,relative viability,Serdemetan + Linsitinib; first compound 0.4 µM,0.873
same,relative viability,Serdemetan + Linsitinib; first compound 1.265 µM,0.701
same,relative viability,Serdemetan + Linsitinib; first compound 4 µM,0.828
same,relative viability,Serdemetan + Dasatinib; first compound 0.04 µM,0.45
same,relative viability,Serdemetan + Dasatinib; first compound 0.1265 µM,0.437
same,relative viability,Serdemetan + Dasatinib; first compound 4 µM,0.351
same,relative viability,Selisistat + Vorinostat; first compound 0.4 µM,0.456
same,relative viability,Selisistat + Vorinostat; first compound 1.265 µM,0.477
same,relative viability,Selisistat + Vorinostat; first compound 4 µM,0.531
same,relative viability,Selisistat + Vorinostat; first compound 12.65 µM,0.504
same,relative viability,Selisistat + Vorinostat; first compound 40 µM,0.593
same,relative viability,Selisistat + Alpelisib; first compound 0.4 µM,1.19
same,relative viability,Selisistat + Alpelisib; first compound 1.265 µM,0.99
same,relative viability,Selisistat + Alpelisib; first compound 4 µM,1.04
same,relative viability,Selisistat + Alpelisib; first compound 12.65 µM,0.994
same,relative viability,Selisistat + Alpelisib; first compound 40 µM,0.887
